Values of other authors, collected in patent US20140081110A1, “ELECTROPHYSIOLOGICAL DIAGNOSIS AND TREATMENT FOR ASTHMA” (University of Liverpool, priority 2011, published 2014).

Test system: normal airway
Settings: UK guidance on asthma (British Guideline on the Management of Asthma, Revised January 2012)

CC(=O)OC(C)C[N+](C)(C)C (stereo not shown) [methacholine]
methacholine dose required to reduce the Forced Expiratory Volume in 1 Second (FEV1) by 20%: > 8 mg/mL
